The text below walks through data of article PMC6956259, “Mechanistic Evaluation of Enhanced Curcumin Delivery through Human Skin In Vitro from Optimised Nanoemulsion Formulations Fabricated with Different Penetration Enhancers” (Pharmaceutics, 2019).

A short description of data set [1]: Stability of curcumin in the receptor medium. Type of data set: physicochemical. The conditions noted are these: 6% Volpo in water, 35 °C, at 0, 1, 6, 12 and 24 h. The protocol:
Standard solutions of curcumin (5, 10, 12.5 and 25 µg/mL) were prepared in a 6% Volpo aqueous solution and stored at 35 ± 0.5 °C for 24 h. Samples removed at 1, 6, 12 and 24 h were assayed for drug content by HPLC.

For data set [2] the following is noted: cited from earlier work.

SMILES strings stand for the structures. Where two headings read alike, the source gives them in different places.

One may read the log P as the decadic logarithm of the partition coefficient of the neutral form, usually between octanol and water. As to `COc1cc(/C=C/C(=O)CC(=O)/C=C/c2ccc(O)c(OC)c2)ccc1O` [curcumin, Curcumin], the “Amount of curcumin remaining” value in data set [1] is greater than 99%. Besides, the “log P” value in data set [2] (no reference given) was 3.6.
With `CCCCOC(=O)c1ccc(O)cc1` [butyl paraben, reference compound], the lipophilicity (log P) in data set [2] was 3.6.
